Reference: patent US9708368B2, “Linear peptide antibiotics” (priority 2012, dated 2017)
pIC50: −log10 of the molar value. ≈ marks a conversion by molar mass, not a printed value. Square brackets hold non-standard residues; d marks the D form. Peptide text beside a SMILES is read from it. * marks the point of attachment. ξ: configuration not given here. boroAla((+)-pinanediol) = C[C@H](N*)B1O[C@@H]2C[C@@H]3C[C@@H](C3(C)C)[C@]2(C)O1; Biphenylcarbonyl(4'-Bu) = CCCCc1ccc(-c2ccc(C(=O)*)cc2)cc1; X1 = C[C@H](N*)B1OC2C[C@@H]3C[C@@H](C3(C)C)[C@]2(C)O1; Benzoyl(4-(4-Cl-Ph)) = O=C(c1ccc(-c2ccc(Cl)cc2)cc1)*; Lys(Me3) = C[N+](C)(C)CCCC[C@H](N)C(=O)O; Pro(4R-NH2) = N[C@H]1CN[C@H](C(=O)O)C1; NMeY = CN[C@@H](Cc1ccc(O)cc1)C(=O)O; Gly(cPr) = N[C@H](C(=O)O)C1CC1; Thr(3ξ) = CC(O)[C@H](N)C(=O)O; Decanoyl = CCCCCCCCCC(=O)*; boroAla = C[C@H](N*)B(O)O; Orn = NCCC[C@H](N)C(=O)O; Dab = NCC[C@H](N)C(=O)O; Abu = CC[C@H](N)C(=O)O; Dap = NC[C@H](N)C(=O)O; βAla = NCCC(=O)O

Experiments:
E. coli SPase = E. coli SPase (Escherichia coli, UniProt P00803); experiment: Biochemical SPase activity assay (fluorogenic peptide substrate), E. coli enzyme
[1] = system: Escherichia coli strain MC4100 IMP-4213, which harbors an LptD mutation; details: Method B; E. coli MC4100 IMP-4213 (LptD mutation); 35° C., 22 hours
Description: In vitro antimicrobial activity of each compound was determined by measuring minimal inhibitor concentrations (MICs) using the broth micro-dilution technique as approved by the Clinical and Laboratory Standards Institute (CLSI). […] Bacterial inocula were prepared by scraping cells into 1 mL of testing media (cation adjusted Mueller Hinton Broth supplemented with 0.002% v/v Tween-80) and diluting to a final OD600 nm of 0.01.
Test compounds were prepared in DMSO at a concentration of 10 mg/ml. […] Bacterial inocula were added to the two fold serial dilutions of test compounds to a final density of OD OD600 nm of 0.0005 and incubated stationarily at 35° C. for 22 hours, after which the plates were examined visually.

S. aureus SPase = S. aureus SPase (Staphylococcus aureus, UniProt P0A070); experiment: biochemical
[2] = system: methicillin resistant Staphylococcus aureus (MRSA) strain USA300 (NRS384); details: Method B, 35° C., 22 hours

SMILES	pIC50 (E. coli SPase)	MIC (μg/mL) E. coli [1]	pIC50 (S. aureus SPase)	MIC (μg/mL) S. aureus [2]
CCCCc1ccc(-c2ccc(C(=O)N[C@@H](CCCCN)C(=O)N[C@@H](CCCCN)C(=O)N[C@@H](C)C(=O)N[C@@H](CC(C)C)C(=O)N[C@@H](C)B3OC4C[C@@H]5C[C@@H](C5(C)C)[C@]4(C)O3)cc2)cc1 (stereo partly shown) [Compound 146] ({Biphenylcarbonyl(4'-Bu)}-KKAL-X1)	7.92	0.25 µg/mL (≈ 0.278 µM)	6.80	0.4 µg/mL (≈ 0.444 µM)
CCCCc1ccc(-c2ccc(C(=O)N[C@@H](CCCCN)C(=O)N[C@H](C(=O)N[C@H](C(=O)N[C@@H](CCCCN)C(=O)N[C@@H](C)B(O)O)C3CC3)C(C)O)cc2)cc1 (stereo partly shown) [Compound 147] ({Biphenylcarbonyl(4'-Bu)}-K[Thr(3ξ)][Gly(cPr)]K-boroAla)	7.85	0.31 µg/mL (≈ 0.398 µM)	7.01	0.25 µg/mL (≈ 0.321 µM)
CCCCc1ccc(-c2ccc(C(=O)N[C@@H](CCN)C(=O)N[C@H](C(=O)N[C@@H](C)C(=O)N[C@@H](CCCCN)C(=O)N[C@@H](C)B3OC4C[C@@H]5C[C@@H](C5(C)C)[C@]4(C)O3)C(C)O)cc2)cc1 (stereo partly shown) [Compound 148] ({Biphenylcarbonyl(4'-Bu)}-[Dab][Thr(3ξ)]AK-X1)	8.13	0.4 µg/mL (≈ 0.465 µM)	6.85	0.23 µg/mL (≈ 0.267 µM)
CCCCc1ccc(-c2ccc(C(=O)N[C@@H](CN)C(=O)N[C@H](C(=O)N[C@@H](C)C(=O)N[C@@H](CCCCN)C(=O)N[C@@H](C)B3O[C@@H]4C[C@@H]5C[C@@H](C5(C)C)[C@]4(C)O3)[C@@H](C)O)cc2)cc1 [Compound 149] ({Biphenylcarbonyl(4'-Bu)}-[Dap]TAK-{boroAla((+)-pinanediol)})	8.41	0.31 µg/mL (≈ 0.366 µM)	6.89	0.28 µg/mL (≈ 0.331 µM)
CCCCc1ccc(-c2ccc(C(=O)N[C@@H](CCCN)C(=O)N[C@H](C(=O)N[C@@H](CC)C(=O)N[C@@H](CCCCN)C(=O)N[C@@H](C)B3OC4C[C@@H]5C[C@@H](C5(C)C)[C@]4(C)O3)C(C)O)cc2)cc1 (stereo partly shown) [Compound 150] ({Biphenylcarbonyl(4'-Bu)}-[Orn][Thr(3ξ)][Abu]K-X1)	8.22	0.5 µg/mL (≈ 0.563 µM)	6.57	0.3 µg/mL (≈ 0.338 µM)
CCCCc1ccc(-c2ccc(C(=O)N[C@@H](CCCCN)C(=O)N[C@@H](CCC(=O)O)C(=O)N[C@@H](C)C(=O)N[C@@H](CCCCN)C(=O)N[C@@H](C)B3O[C@@H]4C[C@@H]5C[C@@H](C5(C)C)[C@]4(C)O3)cc2)cc1 [Compound 151] ({Biphenylcarbonyl(4'-Bu)}-KEAK-{boroAla((+)-pinanediol)})	8.06	1.2 µg/mL (≈ 1.31 µM)	7.42	0.71 µg/mL (≈ 0.775 µM)
CCCCc1ccc(-c2ccc(C(=O)N[C@@H](CCCCN)C(=O)N3C[C@H](N)C[C@H]3C(=O)N[C@@H](C)C(=O)N[C@@H](CC(C)C)C(=O)N[C@@H](C)B(O)O)cc2)cc1 [Compound 152] ({Biphenylcarbonyl(4'-Bu)}-K[Pro(4R-NH2)]AL-boroAla)	7.60	0.5 µg/mL (≈ 0.667 µM)	6.46	0.4 µg/mL (≈ 0.534 µM)
C[C@H](NC(=O)[C@H](CC(N)=O)NC(=O)[C@H](C)NC(=O)[C@@H](NC(=O)[C@H](CCCCN)NC(=O)CCNC(=O)c1ccc(-c2ccc(Cl)cc2)cc1)[C@@H](C)O)B(O)O [Compound 154] ({Benzoyl(4-(4-Cl-Ph))-βAla}-KTAN-boroAla)	7.85	32 µg/mL (≈ 40.6 µM)	8.09	2.8 µg/mL (≈ 3.55 µM)
CCCCc1ccc(-c2ccc(C(=O)N[C@@H](CCCN)C(=O)N[C@H](C(=O)N[C@@H](C)C(=O)N[C@@H](CCCCN)C(=O)N[C@@H](C)B(O)O)C(C)O)cc2)cc1 (stereo partly shown) [Compound 156] ({Biphenylcarbonyl(4'-Bu)}-[Orn][Thr(3ξ)]AK-boroAla)	8.26	0.5 µg/mL (≈ 0.676 µM)	7.01	0.31 µg/mL (≈ 0.419 µM)
CCCCc1ccc(-c2ccc(C(=O)N[C@@H](CCCCN)C(=O)N(C)[C@@H](Cc3ccc(O)cc3)C(=O)N[C@@H](C)C(=O)N[C@@H](CCCCN)C(=O)N[C@@H](C)B(O)O)cc2)cc1 [Compound 157] ({Biphenylcarbonyl(4'-Bu)}-K[NMeY]AK-boroAla)	6.89	4 µg/mL (≈ 4.82 µM)	6.00	2 µg/mL (≈ 2.41 µM)
CCCCc1ccc(-c2ccc(C(=O)N[C@@H](CCCCN)C(=O)N3CCC[C@H]3C(=O)N[C@@H](C)C(=O)N[C@@H](CC(N)=O)C(=O)N[C@@H](C)B(O)O)cc2)cc1 [Compound 158] ({Biphenylcarbonyl(4'-Bu)}-KPAN-boroAla)	7.48	5 µg/mL (≈ 6.8 µM)	6.40	5.7 µg/mL (≈ 7.75 µM)
CCCCc1ccc(-c2ccc(C(=O)N[C@@H](CCCC[N+](C)(C)C)C(=O)N[C@H](C(=O)N[C@@H](C)C(=O)N[C@@H](CCCCN)C(=O)N[C@@H](C)B(O)O)[C@@H](C)O)cc2)cc1 [Compound 159] ({Biphenylcarbonyl(4'-Bu)}-[Lys(Me3)]TAK-boroAla)	6.62	16 µg/mL	7.07	1 µg/mL
CCCCc1ccc(-c2ccc(C(=O)N[C@H](CCCCN)C(=O)N[C@H](C(=O)N[C@@H](C)C(=O)N[C@@H](CCCCN)C(=O)N[C@@H](C)B(O)O)C(C)O)cc2)cc1 (stereo partly shown) [Compound 160] ({Biphenylcarbonyl(4'-Bu)}-[dK][Thr(3ξ)]AK-boroAla)	5.68	64 µg/mL (≈ 84.9 µM)	6.05	2.8 µg/mL (≈ 3.71 µM)
CCCCc1ccc(-c2ccc(C(=O)N[C@@H](CCCCN)C(=O)N[C@@H](CCN)C(=O)N[C@@H](C)C(=O)N[C@@H](CC(C)C)C(=O)N[C@@H](C)B(O)O)cc2)cc1 [Compound 161] ({Biphenylcarbonyl(4'-Bu)}-K[Dab]AL-boroAla)	7.22	0.71 µg/mL (≈ 0.962 µM)	6.52	0.63 µg/mL (≈ 0.854 µM)
CCCCc1ccc(-c2ccc(C(=O)N[C@@H](CN)C(=O)N[C@H](C(=O)N[C@@H](C)C(=O)N[C@@H](CCCCN)C(=O)N[C@@H](C)B(O)O)[C@@H](C)O)cc2)cc1 [Compound 162] ({Biphenylcarbonyl(4'-Bu)}-[Dap]TAK-boroAla)	7.92	0.5 µg/mL (≈ 0.703 µM)	6.70	0.4 µg/mL (≈ 0.562 µM)
CCCCc1ccc(-c2ccc(C(=O)N[C@@H](CCC(=O)O)C(=O)N[C@H](C(=O)N[C@@H](C)C(=O)N[C@@H](CCCCN)C(=O)N[C@@H](C)B(O)O)[C@@H](C)O)cc2)cc1 [Compound 163] ({Biphenylcarbonyl(4'-Bu)}-ETAK-boroAla)	6.62	>64 µg/mL	6.51	4 µg/mL (≈ 5.3 µM)
CCCCc1ccc(-c2ccc(C(=O)N[C@@H](CO)C(=O)N[C@H](C(=O)N[C@@H](C)C(=O)N[C@@H](CCCCN)C(=O)N[C@@H](C)B(O)O)[C@@H](C)O)cc2)cc1 [Compound 164] ({Biphenylcarbonyl(4'-Bu)}-STAK-boroAla)	7.36	1 µg/mL (≈ 1.4 µM)	6.92	1.4 µg/mL (≈ 1.96 µM)
CCCCc1ccc(-c2ccc(C(=O)N[C@@H](CCCCN)C(=O)N[C@@H](CN)C(=O)N[C@@H](C)C(=O)N[C@@H](CC(C)C)C(=O)N[C@@H](C)B(O)O)cc2)cc1 [Compound 165] ({Biphenylcarbonyl(4'-Bu)}-K[Dap]AL-boroAla)	6.92	0.63 µg/mL (≈ 0.87 µM)	6.39	0.63 µg/mL (≈ 0.87 µM)
CCCCc1ccc(-c2ccc(C(=O)N[C@@H](CCCCN)C(=O)NC(C(=O)N[C@@H](C)C(=O)N[C@@H](CCCCN)C(=O)N[C@@H](C)B(O)O)c3ccc(OC)cc3)cc2)cc1 (stereo partly shown) [Compound 166]	7.44	0.5 µg/mL (≈ 0.613 µM)	6.46	0.63 µg/mL (≈ 0.772 µM)
C[C@H](NC(=O)[C@H](CCCCN)NC(=O)[C@H](C)NC(=O)[C@@H](NC(=O)[C@H](CN)NC(=O)c1ccc(-c2ccc(Cl)cc2)cc1)[C@@H](C)O)B1OC2C[C@@H]3C[C@@H](C3(C)C)[C@]2(C)O1 (stereo partly shown) [Compound 167] ({Benzoyl(4-(4-Cl-Ph))}-[Dap]TAK-X1)	8.28	4 µg/mL (≈ 4.85 µM)	6.72	1.7 µg/mL (≈ 2.06 µM)
C[C@H](NC(=O)[C@H](CCCCN)NC(=O)[C@H](C)NC(=O)[C@H](CCCCN)NC(=O)[C@H](CN)NC(=O)c1ccc(-c2ccc(Cl)cc2)cc1)B1OC2C[C@@H]3C[C@@H](C3(C)C)[C@]2(C)O1 (stereo partly shown) [Compound 168] ({Benzoyl(4-(4-Cl-Ph))}-[Dap]KAK-X1)	8.27	1 µg/mL (≈ 1.17 µM)	6.60	0.79 µg/mL (≈ 0.928 µM)
CCCCCCCCCC(=O)N[C@@H](CN)C(=O)N[C@H](C(=O)N[C@@H](C)C(=O)N[C@@H](CCCCN)C(=O)N[C@@H](C)B1OC2C[C@@H]3C[C@@H](C3(C)C)[C@]2(C)O1)[C@@H](C)O (stereo partly shown) [Compound 169] (Decanoyl-[Dap]TAK-X1)	8.41	11 µg/mL (≈ 14.4 µM)	7.06	3.2 µg/mL (≈ 4.19 µM)
